Data published in patent publication US12617783B2, “Heterocyclic GLP-1R agonists” (BIOMEA FUSION, INC., priority 2024, dated 2026).
Entries after “also recorded” stand apart in the source; their conditions may differ. Like-named read-outs stand apart in the source and are kept apart here.

Assays:
[1] = target: T1, human GLP-1R (Homo sapiens, UniProt P43220); test: GLP-1R cAMP assay (Example B1a, HTRF, 30 min at room temperature); type: cell-based; settings: for EC50 Ratio: potency ratio of stereoisomer pair (less potent / more potent isomer)
T1 construct: host or cells: HEK293
T1 sequence (P43220 24-463): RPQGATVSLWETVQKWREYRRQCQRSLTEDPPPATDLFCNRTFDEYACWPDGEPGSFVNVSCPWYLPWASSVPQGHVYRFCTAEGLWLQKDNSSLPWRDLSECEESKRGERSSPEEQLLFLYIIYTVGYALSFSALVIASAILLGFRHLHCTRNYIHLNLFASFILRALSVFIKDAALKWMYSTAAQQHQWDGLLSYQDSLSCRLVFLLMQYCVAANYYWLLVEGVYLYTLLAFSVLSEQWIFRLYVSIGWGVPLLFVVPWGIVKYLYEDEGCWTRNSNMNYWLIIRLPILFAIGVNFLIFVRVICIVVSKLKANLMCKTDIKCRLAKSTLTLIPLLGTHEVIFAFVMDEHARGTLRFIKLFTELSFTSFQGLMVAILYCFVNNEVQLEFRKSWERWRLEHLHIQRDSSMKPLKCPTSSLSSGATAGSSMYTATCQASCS
Outline: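 Competitive HTRF read-out of cAMP after 30 min room-temperature stimulation, BETP absent, of human GLP-1R-HEK293 cells (1,000/well) in HEPES buffer with 500 μM IBMX and 0.1% BSA. Activation normalised to GLP-1(7-37) positive control. EC50 from 4-parameter non-linear regression.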

[2] = Pharmacokinetic analysis in male SD rats; type: in vivo; settings: for Oral F: 5.0 mg/kg po vs 1.0 mg/kg iv; for AUC(0-inf) / clearance / half-life / Vd / Cmax / Tmax: Sprague-Dawley (SD), rat, plasma; for Vd: read-out: Vdss; for exposure compared with Orforglipron: same doses (iv 1 mg/kg and po 5 mg/kg)
Experimental: The rats have free access to food and water. Blood samples were collected pre-dose and 0.083, 0.25, 0.5, 1, 2, 4, 8, 24 hours post dose for i.v. administration group. Blood samples were also collected pre-dose and 0.25, 0.5, 1, 2, 4, 8, and 24 hours after administration in orally dosing group.

[3] = cynomolgus monkey, in vivo; for Oral F: male
Experimental: (§3) Pharmacokinetic Analysis of the Compound 36, Compound 121, Compound 214, and Orforglipron in Cynomolgus Monkeys
(§4) Non naïve male cynomolgus monkeys (n=3 monkeys/group) were fasted overnight and fed 4 hours post dose. Compounds of the present application were formulated in 10% polyethylene glycol 400/10% propylene glycol/80% glycine buffer (100 mM glycine, 64 mM NaOH, pH 10).
(§5) The compound was administered by i.v. infusion for 30 minutes at 0.12 mg/kg (dose volume 1 mL/kg at a speed of 2 mL/kg/h) or orally doses of 0.36 mg/kg. Blood samples were collected pre-dose and 0.25, 0.5 (just before the infusion is stopped), 0.75, 1, 1.5, 2.5, 4, 8, 16, 24 hr post dose for i.v. administration group. Blood samples were also collected pre-dose, 0.5, 1, 2, 3, 4, 8, 16 and 24 hr after administration in orally dosing group.

[4] = in vivo; settings: male, cynomolgus monkey
Experimental: as §3, §4, §5

[5] = test system: islets from a non-diabetic donor; test: Glucose-stimulated insulin secretion (GSIS) in non-diabetic donor islets cultured ex vivo; type: cell-based; settings: compared with orforglipron or DMSO
Experimental: Donor islets cultured ex vivo were assayed for GSIS in the presence of compound 36 (cpd 36), orforglipron or DMSO. Basal insulin secretion, stimulated insulin secretion and secretion index were measured.
Donor islets cultured ex vivo were assayed for GSIS in the presence of compound 214, orforglipron or DMSO. Basal insulin secretion, stimulated insulin secretion and secretion index were measured.

[6] = test system: Type 2 diabetic donor islets; test: Glucose-stimulated insulin secretion (GSIS) in Type 2 diabetic donor islets cultured ex vivo; type: cell-based; settings: islets cultured ex vivo for 8 days (FIG. 1A) or 12 days (FIG. 1B); compared with orforglipron or DMSO
Experimental: Islets from a Type 2 diabetic donor were cultured ex vivo for 8 days (FIG. 1A) or 12 days (FIG. 1B) were assayed for GSIS in the presence of compound 36 (cpd 36), orforglipron or DMSO. Basal insulin secretion, stimulated insulin secretion and secretion index were measured.

[7] = test system: ex-vivo cultured islets from a T2D donor; test: Glucose-Stimulated Insulin Secretion (GSIS) assay, islets from a T2D donor; type: cell-based
Experimental: (§1) Glucose-Stimulated Insulin Secretion (GSIS) Assay
(§2) Purified islets from healthy or Type 2 diabetic donors (Prodo Laboratory, Inc., Aliso Viejo, CA) were cultured in PIM(S) media (Prodo) with 8 mM or 11 mM glucose in a 37° C. water-jacketed incubator with 5% CO2. The GSIS assay followed published procedure (Zhu et al. 2015; Ho et al. 2023). Briefly, islets were conditioned in Krebs-Ringer bicarbonate buffer (KRB, 111 mM NaCl, 4.8 mM KCl, 25 mM NaHCO3, 2.3 mM CaCl2, 1.2 mM MgSO4, 0.15 mM Na2HPO4, 1.2 mM KH2PO4, 10 mM HEPES, 0.2% BSA) containing 2.8 mM glucose for 2 hours with 0.05% DMSO, compound 36 or orforglipron. Size-matched islets were used for each test condition. Islets were washed with KRB once and incubated in fresh KRB containing 2.8 mM glucose with 0.05% DMSO or corresponding compound for one hour to measure the basal insulin secretion in 2.8 mM glucose. Glucose concentration was increased to 11 mM and islets stimulated for one hour in the presence of 0.05% DMSO or corresponding compound to measure stimulated insulin secretion. Supernatants were harvested and insulin secreted under basal and glucose stimulated conditions were quantified using an ELISA kit (ALPCO, Salem, NH). Islets were lysed and genomic DNA was extracted using silicon spin column (Qiagen, Venlo, Netherlands). Insulin secretion was normalized to total genomic DNA.
Insulin secretion index is the ratio of stimulated insulin secretion at 11 mM glucose/basal insulin secretion at 2.8 mM glucose. […] (Ho, K. H., A. Jayathilake, Y. Mahircan, A. Nour, A. B. Osipovich, M. A. Magnuson, G. Gu, and I. Kaverina. 2023. CAMSAP2 localizes to the Golgi in islet beta-cells and facilitates Golgi-ER trafficking, iScience, 26:105938.Zhu X., R. Hu, M. Brissova, R. W. Stein, A. C. Powers, G. Gu, and I. Kaverina. 2015. Microtubules Negatively Regulate Insulin Secretion in Pancreatic beta Cells, Dev Cell, 34:656-68).

[8] = test system: ex-vivo cultured islets from a healthy donor; test: Glucose-Stimulated Insulin Secretion (GSIS) assay, islets from a healthy donor; type: cell-based; settings: compared to DMSO, FIG. 2
Experimental: as §1
as §2, with “DNA. […]” for “DNA.”

[9] = Table 1d, stereoisomer pairs, read-out: EC50
[10] = cAMP accumulation in HEK293 expressing human GLP-1R, no BETP, 30 min room temperature (Method B1a, compounds ID 1-609), Table 1, read-out: EC50
[11] = text to Table 1d, bridge atoms configured into the plane or away from the reader, read-out: potency (EC50)

Row | SMILES | EC50 Ratio ([1]; Table 1d) | EC50 [1, 9] [nM] | EC50 [1, 10] [nM] | EC50 [1, 11] [nM] | Oral F [2] [%] | AUC(0-inf) ([2]; 1.0 mg/kg iv) [ng·h/mL] | clearance ([2]; 1.0 mg/kg iv) [mL/min/kg] | half-life ([2]; 1.0 mg/kg iv) [h] | Vd ([2]; 1.0 mg/kg iv) [L/kg] | AUC(0-inf) ([2]; 5.0 mg/kg po) [ng·h/mL] | Cmax ([2]; 5.0 mg/kg po) [ng/mL] | Tmax ([2]; 5.0 mg/kg po) [h] | half-life ([2]; 5.0 mg/kg po) [h] | exposure compared with Orforglipron [2] | Oral F [3] [%] | AUC(0-inf) ([4]; iv, 0.12 mg/kg) [ng·h/mL] | Vd ([4]; iv, 0.12 mg/kg) [L/kg] | clearance ([4]; iv, 0.12 mg/kg) [mL/min/kg] | half-life ([4]; iv, 0.12 mg/kg) [h] | AUC(0-inf) ([4]; po, 0.36 mg/kg) [ng·h/mL] | other results
1 | Cc1cc(-n2nc3c(c2-n2ccn(-c4ccc5c(cnn5C)c4F)c2=O)[C@@H]2COC[C@H](C3)N2C(=O)c2cc3cc([C@H]4CCOC(C)(C)C4)ccc3n2[C@@]2(c3noc(=O)[nH]3)C[C@@H]2C)cc(C)c1F [Compound 121, 3-((1S,2S)-1-(5-((S)-2,2-dimethyltetrahydro-2H-pyran-4-yl)-2-((4R,8S)-3-(3-(4-fluoro-1-methyl-1H-indazol-5-yl)-2-oxo-2,3-dihydro-1H-imidazol-1-yl)-2-(4-fluoro-3,5-dimethylphenyl)-2,4,5,7,8,9-hexahydro-4,8-epiminooxocino [5,4-c]pyrazole-10-carbonyl)-1H-indol-1-yl)-2-methylcyclopropyl)-1,2,4-oxadiazol-5 (4H)-one] | >122 | 82 | 82 | < 1000 | 54.7 | 3330 | 5.02 | 3.14 | 1.24 | 9120 | 923 | 3.33 | 3.47 | significant higher exposure | 22.2 | 182 | 1.66 | 11.4 | 2.26 | 121 | Cmax ([4]; po, 0.36 mg/kg): 28 ng/mL; Tmax ([4]; po, 0.36 mg/kg): 2 h; half-life ([4]; po, 0.36 mg/kg): 1.94 h
2 | Cc1cc(-n2nc3c(c2-n2ccn(-c4ccc5c(cnn5C)c4F)c2=O)[C@@H]2CC[C@H](C3)N2C(=O)c2cc3cc([C@H]4CCOC5(CC5)C4)ccc3n2[C@@]2(c3noc(=O)[nH]3)C[C@@H]2C)cc(C)c1F [Compound 214, 3-((1S,2S)-1-(2-((4S,7R)-3-(3-(4-fluoro-1-methyl-1H-indazol-5-yl)-2-oxo-2,3-dihydro-1H-imidazol-1-yl)-2-(4-fluoro-3,5-dimethylphenyl)-2,4,5,6,7,8-hexahydro-4,7-epiminocyclohepta [c]pyrazole-9-carbonyl)-5-((S)-4-oxaspiro[2.5]octan-7-yl)-1H-indol-1-yl)-2-methylcyclopropyl)-1,2,4-oxadiazol-5 (4H)-one] | >13 | 52.3 | 52.3 | < 1000 | 32.6 | 4640 | 3.68 | 4.83 | 1.08 | 7510 | 640 | 2.67 | 5.14 | significant higher exposure | 54.0 | 619 | 0.77 | 3.4 | 3.66 | 1000 | glucose-stimulated insulin secretion in islets from a non-diabetic donor [5]: increases in glucose-stimulated insulin secretion; Cmax ([4]; po, 0.36 mg/kg): 149 ng/mL; Tmax ([4]; po, 0.36 mg/kg): 2 h; half-life ([4]; po, 0.36 mg/kg): 3.56 h
3 | Cc1cc(-n2nc3c(c2-n2ccn(-c4ccc5c(cnn5C)c4F)c2=O)[C@@H]2CC[C@H](C3)N2C(=O)c2cc3cc([C@H]4CCOC(C)(C)C4)ccc3n2[C@@]2(c3noc(=O)[nH]3)C[C@@H]2C)cc(C)c1F [Compound 36, 3-((1S,2S)-1-(5-((S)-2,2-dimethyltetrahydro-2H-pyran-4-yl)-2-((4S,7R)-3-(3-(4-fluoro-1-methyl-1H-indazol-5-yl)-2-oxo-2,3-dihydro-1H-imidazol-1-yl)-2-(4-fluoro-3,5-dimethylphenyl)-2,4,5,6,7,8-hexahydro-4,7-epiminocyclohepta [c]pyrazole-9-carbonyl)-1H-indol-1-yl)-2-methylcyclopropyl)-1,2,4-oxadiazol-5(4H)-one] | >94 | 109 | 109 | < 1000 | 29.6 | 5050 | 3.33 | 5.04 | 1.09 | 7480 | 610 | 3.33 | 4.93 | significant higher exposure | 50.2 | 512 | 1.13 | 3.98 | 4.55 | 771 | responsiveness of Type 2 diabetic donor islets to glucose stimulation (GSIS) [6]: increases the responsiveness of Type 2 diabetic donor islets to glucose stimulation; glucose-stimulated insulin secretion in islets from a non-diabetic donor [5]: increases glucose-stimulated insulin secretion; basal insulin secretion ([7]; 2.8 mM glucose, FIG. 1A): decreased; stimulated insulin ([7]; 11 mM glucose, FIG. 1A): improved; glucose-stimulated insulin secretion (GSIS) ([7]; FIG. 1): potentiated GSIS; also recorded: overall relatively better than orforglipron; insulin secretion index ([7]; ratio of stimulated insulin secretion at 11 mM glucose/basal insulin secretion at 2.8 mM glucose, FIG. 1B): improved; insulin secretion upon glucose stimulation [8]: potentiated islets to secrete more insulin upon glucose stimulation compared to DMSO; oral bioavailability compared with Orforglipron [3]: better oral bioavailability; Cmax ([4]; po, 0.36 mg/kg): 121 ng/mL; Tmax ([4]; po, 0.36 mg/kg): 2 h; half-life ([4]; po, 0.36 mg/kg): 4.22 h
